Measurements: PMC3030585, “Functional Magnetic Resonance Imaging Reveals Different Neural Substrates for the Effects of Orexin-1 and Orexin-2 Receptor Antagonists” (PLoS ONE, 2011)

Legend:
[1] = target: T1, orexin-1 receptor (OX1R) (Rattus norvegicus, UniProt P56718); assay: antagonism of Orexin-A-induced [3H]inositol phosphates accumulation in RBL cells stably expressing rat OX1R; assay type: cell-based
T1 construct: gene Hcrtr1
T1 sequence (P56718 1-416): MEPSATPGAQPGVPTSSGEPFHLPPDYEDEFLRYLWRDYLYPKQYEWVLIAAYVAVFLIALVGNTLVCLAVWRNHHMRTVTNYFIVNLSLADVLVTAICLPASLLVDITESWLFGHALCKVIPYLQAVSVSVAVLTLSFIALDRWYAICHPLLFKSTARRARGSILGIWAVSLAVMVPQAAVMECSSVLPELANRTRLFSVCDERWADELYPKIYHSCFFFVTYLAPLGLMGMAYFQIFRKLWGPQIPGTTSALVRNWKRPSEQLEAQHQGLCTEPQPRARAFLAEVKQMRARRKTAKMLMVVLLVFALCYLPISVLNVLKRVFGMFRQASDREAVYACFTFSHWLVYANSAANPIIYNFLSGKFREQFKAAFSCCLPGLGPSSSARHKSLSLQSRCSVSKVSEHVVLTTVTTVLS

[2] = target: T2, orexin-2 receptor (OX2R) (Rattus norvegicus, UniProt P56719); assay: antagonism of Orexin-A-induced [3H]inositol phosphates accumulation in RBL cells stably expressing rat OX2R (Schild analysis); assay type: cell-based
T2 construct: gene Hcrtr2
T2 sequence (P56719 1-460): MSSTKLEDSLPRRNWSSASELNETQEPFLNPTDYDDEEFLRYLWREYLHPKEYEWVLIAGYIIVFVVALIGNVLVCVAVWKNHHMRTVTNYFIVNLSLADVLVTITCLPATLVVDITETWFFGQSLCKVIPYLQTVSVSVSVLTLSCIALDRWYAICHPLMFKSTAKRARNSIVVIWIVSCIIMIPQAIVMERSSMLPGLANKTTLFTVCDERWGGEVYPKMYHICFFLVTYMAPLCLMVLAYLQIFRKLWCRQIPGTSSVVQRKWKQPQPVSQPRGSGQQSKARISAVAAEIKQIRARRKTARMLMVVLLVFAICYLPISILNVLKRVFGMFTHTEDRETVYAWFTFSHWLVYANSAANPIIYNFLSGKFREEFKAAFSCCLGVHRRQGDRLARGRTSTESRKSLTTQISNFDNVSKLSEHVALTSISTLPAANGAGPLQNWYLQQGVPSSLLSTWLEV

[3] = target: T3, κ-opioid (KOP) receptor (Homo sapiens, UniProt P41145); assay: CEREP/Bioprint binding assay panel (human isoforms)
T3 construct: gene OPRK1
T3 sequence (P41145 whole entry, canonical isoform): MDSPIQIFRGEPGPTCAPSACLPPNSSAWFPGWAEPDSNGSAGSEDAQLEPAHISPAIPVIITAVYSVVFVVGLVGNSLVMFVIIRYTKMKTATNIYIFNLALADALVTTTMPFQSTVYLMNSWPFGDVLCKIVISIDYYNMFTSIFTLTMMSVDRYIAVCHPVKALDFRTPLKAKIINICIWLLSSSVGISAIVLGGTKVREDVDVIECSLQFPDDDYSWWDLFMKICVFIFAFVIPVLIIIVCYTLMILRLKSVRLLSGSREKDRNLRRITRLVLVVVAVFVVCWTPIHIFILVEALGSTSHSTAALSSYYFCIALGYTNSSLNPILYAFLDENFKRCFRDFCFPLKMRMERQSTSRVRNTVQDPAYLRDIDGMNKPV

Compound	Kb [1]	Kb [2]	Ki [3]
CC1(C)OC[C@H](NC(=O)Nc2ccc(Br)cc2Br)[C@H](c2ccccc2)O1 [JNJ10397049]	1260 nM	3.16 nM	–
COc1c(F)cccc1C(=O)N1C[C@@H](C)CC[C@H]1CNc1ccc(Br)cn1 [GSK1059865, 5-bromo-N-[(2S,5S)-1-(3-fluoro-2-methoxybenzoyl)-5-methylpiperidin-2-yl]methyl-pyridin-2-amine]	1.58 nM	126 nM	316 nM
